# Measured values taken from publication PMC5889877, “Ex Vivo Cardiotoxicity of Antineoplastic Casiopeinas Is Mediated through Energetic Dysfunction and Triggered Mitochondrial-Dependent Apoptosis” (Oxidative Medicine and Cellular Longevity, 2018).
# Marks after values point to notes of the source that are not given here.
# Key:
# isolated rat hearts [1] = test: Langendorff-perfused isolated rat heart: mechanical performance (RPP, HR, ±dP/dt, cardiac efficiency)
# Description: (§1) Male Wistar rats (250–300 g) were injected with heparin (10^3 U·kg^−1, i.p.) 20 minutes prior to anesthesia with pentobarbital (100 mg·kg^−1, i.p.). When bilateral corneal reflex was absent, the heart was excised through an abdominal approach. Then, the ascending aorta was visualized and cut and the heart was placed in a cardioplegic solution. To avoid ischemia, the time between cutting the diaphragm to placing the heart in the solution was less than 60 seconds. The hearts were mounted in accordance with the Langendorff model and perfused at a constant flow (12 ml·min^−1) with a Krebs-Henseleit buffer as previously described. A latex balloon connected to a pressure transducer filled with saline solution was inserted into the left ventricle after establishing autonomous contraction. The pulmonary artery was cannulated and connected to a closed chamber using a Clark-type oxygen electrode (Yellow Springs Instruments, Yellow Springs, Ohio) to measure myocardial oxygen consumption (MVO2) in the coronary effluent. The rate of MVO2 was calculated as the difference between the concentration in the K-H buffer before (100%) and after perfusion. Data Trax software (WPI, Sarasota, Florida) was used for continuous recording of the heart rate (HR), left ventricular pressure (LVP), MVO2, and maximum positive and negative derivative of left ventricular pressure (±dP/dt). The baseline was established during 10–15 minutes of K-H perfusion. Each concentration of Cas or Doxo remained in the heart for 30 min. Hearts in the control group were perfused with K-H buffer during the whole experimental time. Rate pressure product (RPP = HR × LVP) and cardiac efficiency ([…]) were calculated as previously reported.
# isolated rat hearts [2] = test: Myocardial oxygen consumption and energetic metabolites (ATP, PCr) in perfused hearts; conditions: Cas at IC50, Doxo 5 μM
# Description: as §1
# (§2) To measure the energetic metabolites ATP, phosphocreatine (PCr), and aconitase activity at the end of the perfusion protocols, samples were prepared as follows: the hearts were removed from the perfusion system by cutting the aorta and immediately flash-frozen with liquid N2, weighed, and stored at −80°C. Afterward, the hearts were homogenized in ice-cold buffer containing 250 mM sucrose, 10 mM HEPES, and 1 mM EDTA (pH 7.4). For enzymatic determination, aliquots of the homogenate were immediately frozen in liquid nitrogen and stored at −80°C. Quantification of ATP and PCr was carried out in a HPLC system with a dual-pump gradient (Waters Chromatography, Toronto, Canada) as previously described.
# subcutaneous tumors = conditions: nude mice ref 29; cited from earlier work
# caspases 3 and 7 = test: Caspase-Glo 3/7 activity in cell lysates; format: cell-based, rat; conditions: cardiomyocytes treated at IC50, compared to Doxo or the control
# Excerpt: Ventricular cardiomyocytes were obtained from male Wistar rats (250–300 g) by digestion with collagenase type II as previously described. Cells were washed in Tyrode solution (mM): 130 NaCl, 5.4 KCl, 0.4 NaH2PO4, 0.5 MgCl2, 25 HEPES, and 5 glucose with pH 7.4. After isolation, cells were cultivated at a density of 3.2 × 10^3 viable cells/well in 96-well plates pretreated with laminin in M-199 medium supplemented in mM with 5 taurine, 5 creatine, 2 L-carnitine, 2.5 sodium pyruvate, and penicillin-streptomycin at 100 U·ml^−1 and 100 μg·ml^−1, respectively, at 37°C, with 5% CO2 and 95% air. After incubation for three hours, varying concentrations of Cas were tested in triplicate, exposing the myocytes during 24 hours to each treatment. At the end of the incubation period, the cytotoxicity of Cas was measured using the Alamar Blue viability test (Life Technologies, Carlsbad, CA, USA). Release of cytoplasmic lactate dehydrogenase (LDH) was determined using CytoTox-ONE homogeneous membrane integrity kit (Promega Madison, WI, USA). The activity of caspases 3/7 and caspase 9 was measured in cell lysates using caspase-Glo 3/7 and caspase-Glo 9 test luminescent assay (Promega, Madison, WI, USA), respectively. The cardiomyoblast cell line H9c2 (ATCC CRL-1446) was maintained using standard procedures in DMEM supplemented with 10% fetal bovine serum prior to the oxidative stress experiments.
# cytochrome c = test: Mitochondrial cytochrome c content by Western blot; set-up: species or system rat; conditions: heart mitochondria after 30 min perfusion at IC50
# Description: To measure mitochondrial oxygen consumption, mitochondrial membrane potential, and Ca^2+ uptake, cytochrome c samples were prepared as follows: after perfusion, heart tissue from the left ventricle was minced and homogenized in cold mitochondrial isolation medium (in mM: 125 KCl, 1 EDTA, and 10 HEPES-HCl; pH 7.3). The mitochondrial fraction was obtained by differential centrifugation using the protease Nagarse, as previously described. Mitochondrial oxygen consumption was measured using a Clark-type oxygen electrode. The experiments were carried out in respiration assay medium containing 125 KCl, 10 HEPES-HCl, and 3 KH2PO4 (in mM) with pH 7.3. State 4 respiration was measured in the presence of 10 mM glutamate-malate, and state 3 respiration was evaluated after addition of 100 μM ADP. Maximal respiration was determined with 0.08 μM of carbonyl cyanide m-chlorophenyl hydrazine (CCCP). The mitochondrial membrane potential was measured by fluorometry using 5 μM safranine. Mitochondrial Ca^2+ uptake was determined with the metalochromic indicator, Arsenazo III, or calcium green 5N (5N-CG), using a medium containing 50 μM Arsenazo or 10 μM 5N-CG, 10 mM succinate plus rotenone (0.1 μg·ml^−1), 200 μM ADP, and 0.25 μg oligomycin A. Pulses of 10 nmol Ca^+2 were added every 3 minutes to reach a Ca^+2 release due to MPT opening. […]
# [3] = system: mitochondrial permeability transition pore; test: Mitochondrial Ca2+ retention capacity (MPT opening); set-up: species or system rat; conditions: mitochondria from treated hearts, CsA 0.5 μM added in vitro
# Description: (§3) To measure mitochondrial oxygen consumption, mitochondrial membrane potential, and Ca^2+ uptake, cytochrome c samples were prepared as follows: after perfusion, heart tissue from the left ventricle was minced and homogenized in cold mitochondrial isolation medium (in mM: 125 KCl, 1 EDTA, and 10 HEPES-HCl; pH 7.3). The mitochondrial fraction was obtained by differential centrifugation using the protease Nagarse, as previously described. Mitochondrial oxygen consumption was measured using a Clark-type oxygen electrode. The experiments were carried out in respiration assay medium containing 125 KCl, 10 HEPES-HCl, and 3 KH2PO4 (in mM) with pH 7.3. State 4 respiration was measured in the presence of 10 mM glutamate-malate, and state 3 respiration was evaluated after addition of 100 μM ADP. Maximal respiration was determined with 0.08 μM of carbonyl cyanide m-chlorophenyl hydrazine (CCCP). The mitochondrial membrane potential was measured by fluorometry using 5 μM safranine. Mitochondrial Ca^2+ uptake was determined with the metalochromic indicator, Arsenazo III, or calcium green 5N (5N-CG), using a medium containing 50 μM Arsenazo or 10 μM 5N-CG, 10 mM succinate plus rotenone (0.1 μg·ml^−1), 200 μM ADP, and 0.25 μg oligomycin A. Pulses of 10 nmol Ca^+2 were added every 3 minutes to reach a Ca^+2 release due to MPT opening. Mitochondrial cytochrome c quantification from Cas-treated hearts was performed using Western blot analysis as described previously. The blots were developed with Luminata crescendo substrate (Merck Millipore, Darmstadt, Germany) and detected with VisionWorks LS-UVP Chimio System (BioSpectrum 415 Imaging System, Cambridge, UK).
# [4] = system: mitochondria isolated from Cas-treated hearts; test: Respiratory activity of mitochondria isolated from treated hearts (Clark-type oxygen electrode); set-up: species or system rat
# Description: as §3
# [5] = system: α-ketoglutarate dehydrogenase; set-up: method as in PMID 26739598; conditions: cited from earlier work
# aconitase = test: Mitochondrial aconitase activity in heart homogenates; conditions: ex vivo heart, Cas at IC50, Doxo 5 μM
# Description: as §2
smiles,measurement,setting,value
"CC(=O)C=C(C)[O-].Cc1ccnc(-c2cc(C)ccn2)c1.O.O.O=[N+]([O-])[O-].[Cu+2] [Cas III-ia, Aqua(4,4-dimethyl-2,2′bipyridine)(acetylacetonate)copper(II)nitrate]",+dP/dt × 1000 (contraction rate),isolated rat hearts [1]; hearts treated at the IC50,2.4 ± 0.20^∗ mmHg·s^−1
same,−dP/dt × 1000 (relaxation rate),isolated rat hearts [1]; hearts treated at the IC50,−1.0 ± 0.16^∗ mmHg·s^−1
same,"t 0.5, time for half-inhibition of RPP","isolated rat hearts [1]; isolated rat heart, 5 μM","49 ± 0.8^a,b,c min"
same,heart rate (HR) reduction,isolated rat hearts [1]; perfused at 5 μM,not affected
same,IC50,"isolated rat hearts [1]; read-out: IC50, half-maximal inhibitory concentration for RPP (heart contractile function), isolated rat heart, at 30 min perfusion",10 ± 0.7 µM
same,PCr levels,isolated rat hearts [2],decreased
same,change in MVO2,isolated rat hearts [2],no changes
same,decrease in ATP content,isolated rat hearts [2],37%
same,reduction of the volume of subcutaneous tumors,subcutaneous tumors,81%
same,increase in activity of caspases 3 and 7,caspases 3 and 7,~ 4 fold
same,mitochondrial cytochrome c content,cytochrome c,reduction of cytochrome c
same,protective effect of CsA on Ca2+ retention capacity,[3],28%
same,Max. respiration,[4]; 0.08 μM CCCP,12.3 ± 2.6^∗ nmol O min^−1·mg^−1
same,State 4 respiration,[4]; 10 mM glutamate-malate,15.6 ± 2.6 nmol O min^−1·mg^−1
same,Respiratory control,[4]; malate/glutamate,1.3 ± 0.1^∗
same,State 3 respiration,"[4]; malate/glutamate, after 100 μM ADP",18.5 ± 0.6^∗ nmol O min^−1·mg^−1
same,decrease in state 3 respiration rate,[4]; versus control,78%
same,reduction in maximal respiration,[4]; versus control,87%
same,α-ketoglutarate dehydrogenase activity compared with III-Ea,[5],twofold decrease
same,aconitase activity,aconitase,decreased
